Measurements reported in patent publication US20040071783A1, “Methods and apparatus for particle formation” (priority 1998, published 2004).

How the values were obtained:
[1] = SEM, in comparison
[2] = Particle size analysis using the Aerosizer/Aerodisperser system; format: physicochemical; settings: particle size distribution
Procedure: Particle size analysis of the product was carried out using the Aerosizer/Aerodisperser system (API, USA).

[3] = Crystallinity by XRPD; format: physicochemical; settings: XRPD pattern

SIZE, 5% UNDER [2]	SIZE, 10% UNDER [2]	SIZE, 15% UNDER [2]	SIZE, 20% UNDER [2]	SIZE, 25% UNDER [2]	SIZE, 30% UNDER [2]	SIZE, 35% UNDER [2]	SIZE, 40% UNDER [2]	SIZE, 45% UNDER [2]	SIZE, 50% UNDER [2]	SIZE, 55% UNDER [2]	SIZE, 60% UNDER [2]	SIZE, 65% UNDER [2]	SIZE, 70% UNDER [2]	SIZE, 75% UNDER [2]	SIZE, 80% UNDER [2]	SIZE, 85% UNDER [2]	SIZE, 90% UNDER [2]	SIZE, 95% UNDER [2]	crystallinity [3]	SMILES	further results
–	–	–	–	–	–	–	–	–	–	–	–	–	–	–	–	–	–	–	–	O=C(O)c1cccnc1 [Example 5b, nicotinic acid]	particle size and morphology [1]: comparable particle size and morphology to that of the product of Example 5a
3.762 micron	4.462 micron	5.018 micron	5.518 micron	5.999 micron	6.479 micron	6.966 micron	7.471 micron	8.004 micron	8.572 micron	9.186 micron	9.849 micron	10.55 micron	11.28 micron	12.06 micron	12.92 micron	13.88 micron	14.96 micron	16.35 micron	–	CC(C)Cc1ccc(C(C)C(=O)O)cc1 (centres unmarked) [Example 1c, ibuprofen]	–
–	–	–	–	–	–	–	–	–	–	–	–	–	–	–	–	–	–	–	confirmed its crystallinity	CC(C(=O)O)c1cccc(C(=O)c2ccccc2)c1 (centres unmarked) [Example 4, ketoprofen]	–
–	–	–	–	–	–	–	–	–	–	–	–	–	–	–	–	–	–	–	crystalline in form	O=C(O)c1ccccc1O [Example 3b, salicylic acid]	–
5.815 micron	7.327 micron	8.537 micron	9.612 micron	10.62 micron	11.57 micron	12.49 micron	13.38 micron	14.26 micron	15.17 micron	16.10 micron	17.06 micron	18.06 micron	19.10 micron	20.20 micron	21.41 micron	22.79 micron	24.42 micron	26.78 micron	–	CC(C)Cc1ccc(C(C)C(=O)O)cc1 (centres unmarked) [Example 2, ibuprofen]	–
9.241 micron	11.68 micron	13.57 micron	15.21 micron	16.74 micron	18.21 micron	19.62 micron	20.99 micron	22.30 micron	23.58 micron	24.87 micron	26.16 micron	27.48 micron	28.83 micron	30.25 micron	31.76 micron	33.44 micron	35.44 micron	38.65 micron	–	CC(C)Cc1ccc(C(C)C(=O)O)cc1 (centres unmarked) [Example 1a, ibuprofen]	–
5.920 micron	7.411 micron	8.631 micron	9.720 micron	10.75 micron	11.72 micron	12.66 micron	13.56 micron	14.43 micron	15.30 micron	16.18 micron	17.07 micron	17.99 micron	18.94 micron	19.95 micron	21.05 micron	22.25 micron	23.67 micron	25.84 micron	–	CC(C)Cc1ccc(C(C)C(=O)O)cc1 (centres unmarked) [Example 1b, ibuprofen]	–
–	–	–	–	–	–	–	–	–	–	–	–	–	–	–	–	–	–	–	crystalline	O=C(O)c1ccccc1O [Example 3a, salicylic acid]	–
